Source: ChEMBL document CHEMBL5528002, “Identification of selective 5-LOX and FLAP inhibitors as novel anti-inflammatory agents by ligand-based virtual screening” (Eur J Med Chem, 2024)
pIC50: −log10 of the molar value. Active and inactive are the calls of the source. No cut-off for these calls is given here.

Legend:
Macrophage cell line [1] = test: Effect on lipid mediator formation in human M1-like phenotype MDM cells by measuring 12-HEPE formation at 10 uM pre-incubated for 15 mins followed by SACM stimulation and measured after 90 mins by UPLC-MS/MS analysis (reference value: 40 +/- 9 pg/ml); format: functional; details: time 105 min, 1.75 h
Macrophage cell line [2] = test: Effect on lipid mediator formation in human M1-like phenotype MDM cells by measuring 5-HEPE formation at 10 uM pre-incubated for 15 mins followed by SACM stimulation and measured after 90 mins by UPLC-MS/MS analysis (reference value: 560 +/- 160 pg/ml); format: functional; details: time 105 min, 1.75 h
Macrophage cell line [3] = test: Effect on lipid mediator formation in human M2-like phenotype MDM cells by measuring RvD5 formation at 10 uM pre-incubated for 15 mins followed by SACM stimulation and measured after 90 mins by UPLC-MS/MS analysis (reference value: 344 +/- 92 pg/ml); format: functional; details: time 105 min, 1.75 h
Macrophage cell line [4] = test: Effect on lipid mediator formation in human M2-like phenotype MDM cells by measuring 12-HETE formation at 10 uM pre-incubated for 15 mins followed by SACM stimulation and measured after 90 mins by UPLC-MS/MS analysis relative to control; format: functional; details: time 105 min, 1.75 h
Macrophage cell line [5] = test: Effect on lipid mediator formation in human M1-like phenotype MDM cells by measuring 4-HDHA formation at 10 uM pre-incubated for 15 mins followed by SACM stimulation and measured after 90 mins by UPLC-MS/MS analysis relative to control; format: functional; details: time 105 min, 1.75 h
[6] = target: T1, Polyunsaturated fatty acid 5-lipoxygenase (Homo sapiens, UniProt P09917); test: Inhibition of 5-LOX in human Neutrophil using arachidonic acid as substrate preincubated with compound for 15 mins followed by substrate and A23187 addition measured after 10 mins by RP-HPLC analysis; format: cell-based
T1 sequence (P09917 whole entry): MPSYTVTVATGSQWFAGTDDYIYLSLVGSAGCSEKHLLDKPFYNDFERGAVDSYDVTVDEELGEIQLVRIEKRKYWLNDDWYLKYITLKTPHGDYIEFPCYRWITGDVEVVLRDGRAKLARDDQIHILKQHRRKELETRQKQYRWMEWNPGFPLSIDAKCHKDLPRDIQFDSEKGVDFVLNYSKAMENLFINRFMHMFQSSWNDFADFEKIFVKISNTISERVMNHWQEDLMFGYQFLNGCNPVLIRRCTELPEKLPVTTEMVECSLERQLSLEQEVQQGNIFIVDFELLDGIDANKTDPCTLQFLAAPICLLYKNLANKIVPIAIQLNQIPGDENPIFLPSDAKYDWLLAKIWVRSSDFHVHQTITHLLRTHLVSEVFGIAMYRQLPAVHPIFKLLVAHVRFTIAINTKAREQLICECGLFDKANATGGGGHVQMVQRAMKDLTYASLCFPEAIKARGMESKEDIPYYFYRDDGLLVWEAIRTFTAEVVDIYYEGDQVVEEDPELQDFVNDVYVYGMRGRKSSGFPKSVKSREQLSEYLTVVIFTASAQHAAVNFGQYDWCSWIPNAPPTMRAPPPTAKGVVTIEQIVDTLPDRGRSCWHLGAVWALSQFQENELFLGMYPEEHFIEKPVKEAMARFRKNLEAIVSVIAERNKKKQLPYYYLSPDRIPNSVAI

Macrophage cell line [7] = test: Effect on lipid mediator formation in human M2-like phenotype MDM cells by measuring 5S,6R-diHETE formation at 10 uM pre-incubated for 15 mins followed by SACM stimulation and measured after 90 mins by UPLC-MS/MS analysis relative to control; format: functional; details: time 105 min, 1.75 h
Macrophage cell line [8] = test: Effect on lipid mediator formation in human M1-like phenotype MDM cells by measuring 15-HETE formation at 10 uM pre-incubated for 15 mins followed by SACM stimulation and measured after 90 mins by UPLC-MS/MS analysis (reference value: 910 +/- 229 pg/ml); format: functional; details: time 105 min, 1.75 h
[9] = Antioxidant activity assessed as DPPH radical scavenging activity at 1 uM incubated for 30 min by DPPH assay; format: functional
Macrophage cell line [10] = test: Effect on lipid mediator formation in human M1-like phenotype MDM cells by measuring 4-HDHA formation at 10 uM pre-incubated for 15 mins followed by SACM stimulation and measured after 90 mins by UPLC-MS/MS analysis (reference value: 58 +/- 9 pg/ml); format: functional; details: time 105 min, 1.75 h
Macrophage cell line [11] = test: Effect on lipid mediator formation in human M2-like phenotype MDM cells by measuring 14-HDHA formation at 10 uM pre-incubated for 15 mins followed by SACM stimulation and measured after 90 mins by UPLC-MS/MS analysis (reference value: 1517 +/- 298 pg/ml); format: functional; details: time 105 min, 1.75 h
[12] = target: T2, Polyunsaturated fatty acid 5-lipoxygenase (Homo sapiens) (UniProt P09917); test: Inhibition of 5-LOX in human Neutrophil assessed as enzyme remaining activity at 10 uM preincubated with compound for 15 mins followed by A23187 addition measured after 10 mins by RP-HPLC analysis relative to control; format: cell-based; details: time 25.0 min
T2 sequence (whole entry): T1 sequence (P09917 whole entry)

Macrophage cell line [13] = test: Effect on lipid mediator formation in human M1-like phenotype MDM cells by measuring 5,15-diHETE formation at 10 uM pre-incubated for 15 mins followed by SACM stimulation and measured after 90 mins by UPLC-MS/MS analysis (reference value: 122 +/- 58 pg/ml); format: functional; details: time 105 min, 1.75 h
Macrophage cell line [14] = test: Effect on lipid mediator formation in human M1-like phenotype MDM cells by measuring TXB2 formation at 10 uM pre-incubated for 15 mins followed by SACM stimulation and measured after 90 mins by UPLC-MS/MS analysis relative to control; format: functional; details: time 105 min, 1.75 h
[15] = target: T2, Polyunsaturated fatty acid 5-lipoxygenase (Homo sapiens); test: Inhibition of human recombinant 5-LOX expressed in Escherichia coli BL21(DE3) assessed as enzyme remaining activity at 10 uM using arachidonic acid as substrate preincubated with compound for 15 mins followed by substrate and CaCl2 addition measured after 10 mins by RP-HPLC analysis relative to control; details: time 25.0 min
[16] = target: T1, Polyunsaturated fatty acid 5-lipoxygenase; test: Inhibition of 5-LOX in human Neutrophil preincubated with compound for 15 mins followed by A23187 addition measured after 10 mins by RP-HPLC analysis; format: cell-based
Macrophage cell line [17] = test: Effect on lipid mediator formation in human M2-like phenotype MDM cells by measuring 4-HDHA formation at 10 uM pre-incubated for 15 mins followed by SACM stimulation and measured after 90 mins by UPLC-MS/MS analysis (reference value: 58 +/- 8 pg/ml); format: functional; details: time 105 min, 1.75 h
Macrophage cell line [18] = test: Effect on lipid mediator formation in human M2-like phenotype MDM cells by measuring PGF2alpha formation at 10 uM pre-incubated for 15 mins followed by SACM stimulation and measured after 90 mins by UPLC-MS/MS analysis relative to control; format: functional; details: time 105 min, 1.75 h
Macrophage cell line [19] = test: Effect on lipid mediator formation in human M2-like phenotype MDM cells by measuring 5,15-diHETE formation at 10 uM pre-incubated for 15 mins followed by SACM stimulation and measured after 90 mins by UPLC-MS/MS analysis relative to control; format: functional; details: time 105 min, 1.75 h
Macrophage cell line [20] = test: Effect on lipid mediator formation in human M2-like phenotype MDM cells by measuring MaR2 formation at 10 uM pre-incubated for 15 mins followed by SACM stimulation and measured after 90 mins by UPLC-MS/MS analysis (reference value: 16 +/- 1 pg/ml); format: functional; details: time 105 min, 1.75 h
Macrophage cell line [21] = test: Effect on lipid mediator formation in human M1-like phenotype MDM cells by measuring arachidonic acid formation at 10 uM pre-incubated for 15 mins followed by SACM stimulation and measured after 90 mins by UPLC-MS/MS analysis relative to control; format: functional; details: time 105 min, 1.75 h

In the case of `COc1ccc(C2=C/C(=C/c3ccc(O)cc3O)C(=O)O2)cc1`, the Activity (Macrophage cell line [1]) was 37 pg/mL, the Activity (Macrophage cell line [2]) was 62 pg/mL and the Activity (Macrophage cell line [3]) was 575 pg/mL. The Activity (Macrophage cell line [4]) was 114%, the Activity (Macrophage cell line [5]) was 80% and the pIC50 [6] was 6.05. The Activity (Macrophage cell line [7]) was 4%, the Activity (Macrophage cell line [8]) was 823 pg/mL and the Activity [9] was “inactive”. The Activity (Macrophage cell line [10]) was 47 pg/mL, the Activity (Macrophage cell line [11]) was 2718 pg/mL and the Activity [12] was 19.6%. For the same compound, the Activity (Macrophage cell line [13]) was 16 pg/mL, the Activity (Macrophage cell line [14]) was 94% and the Activity [15] was 84.5%. The pIC50 [16] was 5.32, the Activity (Macrophage cell line [17]) was 49 pg/mL and the Activity (Macrophage cell line [18]) was 125%. It also gave an Activity (Macrophage cell line [19]) of 39%, an Activity (Macrophage cell line [20]) of 36 pg/mL and an Activity (Macrophage cell line [21]) of 116%.
With `Oc1ccc(CCC2CCC(c3ccc(O)cc3)CO2)cc1` (configuration not stated) the Activity (Macrophage cell line [1]) was 36 pg/mL, the Activity (Macrophage cell line [2]) was 98 pg/mL and the Activity (Macrophage cell line [3]) was 361 pg/mL. It also gave an Activity (Macrophage cell line [4]) of 122%, an Activity (Macrophage cell line [5]) of 75% and a pIC50 [6] of 5.68. For the same compound, the Activity (Macrophage cell line [7]) was 7%, the Activity (Macrophage cell line [8]) was 776 pg/mL and the Activity [9] was “inactive”. For the same compound, the Activity (Macrophage cell line [10]) was 44 pg/mL, the Activity (Macrophage cell line [11]) was 2101 pg/mL and the Activity [12] was 4.2%. For the same compound, the Activity (Macrophage cell line [13]) was 37 pg/mL, the Activity (Macrophage cell line [14]) was 94% and the Activity [15] was 96.5%. For the same compound, the pIC50 [16] was 5.96, the Activity (Macrophage cell line [17]) was 58 pg/mL and the Activity (Macrophage cell line [18]) was 80%. It also gave an Activity (Macrophage cell line [19]) of 61%, an Activity (Macrophage cell line [20]) of 31 pg/mL and an Activity (Macrophage cell line [21]) of 108%.
